Measurements as given in patent US20040229960A1, “Compositions and methods of administering tubulin binding agents for the treatment of ocular diseases” (priority 2001, published 2004).

Tests used:
[1] = Primary ocular irritation, topical drops; assay type: in vivo
Experimental: The test article, CA4P, was evaluated for primary ocular irritation. A single 0.2 ml dose of CA4P dilution (0.1, 1.0, 10 and 100 mg/ml) was placed in the lower conjunctival sac of the left eye […]. The contralateral eye received buffered saline solution. Ocular reactions were evaluated at 24, 48 and 72 hours after the sample instillation.

[2] = system: corneal neovascularization; experiment: LHP-induced rabbit corneal neovascularization model, IP treatment; assay type: in vivo, New Zealand rabbits; conditions: for Effect on neovascular growth: 50 mg/kg IP
Description: To assess the ability of CA4P to inhibit corneal neovascularization, a rabbit corneal model was used in which neovascularization was induced by linoleic acid hydroperoxide (“LHP”) injection (Ueda et al., Angiogenesis, 1997, 1: 174-184). Injection of LHP in the corneal stroma stimulates the localized production of angiogenic cytokines within the cornea. Blood vessels in the circumlimbal plexus respond to the angiogenic stimulation by migrating towards the site of LHP injection. Therapeutic efficacy of systemically delivered CA4P was assessed by measuring the length of these proliferating vessels.
Vessels grew at a rate of 0.25 mm/day. Groups 2 and 4 were injected intraperitoneally (“IP”) with CA4P (50 mg/kg) after 3 and 10 days of vessel growth respectively. Treatment groups 1 and 3 were injected with saline control on day 3 and day 10 post-LHP injection. Surface photographs of the cornea were taken at 0, 3, 6, 12, 17, and 28 days post-LHP injection. Following each photographic session, corneal vessels were observed under an operating microscope and Castroviejo calipers were used to measure the length of the most prominent vessel.
In addition to longest-vessel measurements, histology analysis was undertaken on day 28 to assess the amount of dissolved extracellular matrix, vessel wall thickness, and degree of vessel branching. Euthanized animals were enucleated and the vitreous was removed from each eye prior to fixation in 4% paraformaldehyde for 45 minutes and 0.2M cacodylate buffer (pH 7.4) overnight. Eyes were embedded in paraffin, sectioned to a 3 um thickness, and stained with […] and eosin.

[3] = system: choroidal neovascularization; experiment: Krypton laser murine model of choroidal neovascularization; assay type: in vivo, C57BL/6J mouse; conditions: for Average Vessel Lumen Area: vehicle 0.0129886
Experimental: Choroidal neovascularization is a major cause of severe vision loss in patients with age-related or wet macular degeneration. To investigate the capacity of CA4P to inhibit vascular growth in the choroids, a murine model of Choroidal Neovascularization was tested. In this model the investigator used a krypton laser to create a wound on the Bruch's membrane of a C57BL/6J mouse. Each eye received several burns. The burn elicited a classic wound-healing response that included neovascularization within the choroid. This krypton laser photocoagulation method has been described in Tobe et al., Am. J. of Pathology, 1998, 153(5):1641-6. […] Histopathology and fluorescein angiography were used to identify neovascularization surrounding the burn. Electron microscopy was used to measure the lumen diameter of fenestrated neovasculature within the choroidal neovascular lesions. Table 12 illustrates the results of CA4P treatment on the average vessel lumen area.

[4] = system: oxygen-induced retinal neovascularization; experiment: Murine model of oxygen-induced retinal neovascularization (ROP); assay type: in vivo; conditions: neonatal mouse treated upon removal from hyperoxic conditions
Description: The inner retina of the mammalian eye receives oxygen from the superficial retinal capillary bed. This capillary bed is located beneath the inner limiting membrane which serves as the interface between the inner retina and the outer avascular vitreous. The pathology of retinal neovascularization or retinopathy arises from ischemia-induced growth of neovasculature beyond the retinal inner limiting membrane and into the vitreous, causing severe loss of vision and frequently leading to retinal detachment. […] In this model neonatal mice are exposed to sustained hyperoxic conditions (75% oxygen for 7 days) that inhibit the development of the superficial retinal capillary bed. When a mouse pup is removed from the pure oxygen environment and placed in the relative hypoxia of environmental oxygen, the underdeveloped superficial retinal capillary bed is unable to deliver sufficient quantities of oxygen to the retina. […]
It is expected that the treatment of a neonatal mouse with CA4P immediately upon its removal from hyperoxic conditions would be an effective treatment method for ROP. Retinal neovascularization can be quantified by counting the number chemically stained nuclei of penetrating endothelial cells in retinal tissue section of treated and untreated eyes according to existing methods (Majka et al., Invest. Ophthalmol. Vis. Sci. 2001, 42: 210-15).

[5] = system: retinoblastoma; experiment: Murine transgenic model of retinoblastoma, subconjunctival treatment; assay type: in vivo, SV-40 Large T antigen positive mice
Experimental: A murine transgenic model of retinoblastoma was used in which SV-40 Large T antigen positive mice develop bilateral retinoblastoma resembling human pediatric retinoblastoma. In this model, tumors first appear at 4 weeks of age and develop in a stable and reproducible manner (Hayden et al., Arch Ophthalmol. 2002;120(3):353-9). In one experiment, 12-week old animals (n=48) were treated with a single 20 ul subconjunctival injection of CA4P (100 mg/ml) in the right eye only. Control mice (n=8) were treated with a balanced salt solution (“BSS”). Eyes were sampled by enucleation at Days 1, 3, 7, 14, 21, and 28 post treatment (n=8 eyes per sample). Samples were fixed, paraffin embedded, serially sectioned, and stained with heometoxylin, eosin, and PAS prior. Each tissue sample was examined for histopathological tumor vascular response.
In a separate dosing experiment, animals (n=48) were treated with 6 serial biweekly subconjunctival injections of CA4P, at concentrations of 100, 10, 1, 0.1 or 0.01 mg/ml in a volume of 20 ul (n=6 eyes per sample). A control group (n=6) received serial subconjunctival injections of BSS. Eyes were enucleated at 28 days post-treatment and examined for tumor volume reduction. FIG. 5B illustrates the dose-dependent effect of CA4P on tumor vascular volume in comparison to control.

[6] = early intervention, 50 mg/kg IP qd x 5 from Day 3 (Group 2)

Structure (SMILES): COc1ccc(/C=C\c2cc(OC)c(OC)c(OC)c2)cc1OP(=O)([O-])[O-].[Na+].[Na+] [CA4P, combretastatin A4 disodium phosphate]
- Irritation (Draize Scores) ([1]; Topical, 0-10 mg): No Irritation
- Macroscopic ocular reaction vs control ([1]; all dilutions 0.1-100 mg/ml, single 0.2 ml topical dose, 24-72 h): insignificant
- Microscopic ocular irritation vs buffered saline ([1]; topical drops 0.1-100 mg/ml): not considered an irritant
- Histology of corneal vessels ([2]; Day 28, stained sections, vs vehicle (round and numerous)): vessels appeared narrow and less numerous
- Vessel Length on Day 6 [2, 6]: 0.7 ± 0.16 mm
- Vessel Length on Day 12 [2, 6]: 0.5 ± 0.61 mm
- Vessel Length on Day 3 ([2]; early intervention, 50 mg/kg IP qd x 5 from Day 3 (Group 2), Day 3 = treatment start): 0.6 ± 0.12 mm
- Effect on neovascular growth ([2]; intervention 10 days after angiogenic stimulation): the effect was the same
- Effect on neovascular growth ([2]; intervention within 3 days of angiogenic stimulation): complete inhibition of neovascular growth
- Vessel Length on Day 12 ([2]; late intervention, 50 mg/kg IP from Day 10 (Group 4), first column): 2.6 ± 0.29 mm
- Vessel Length on Day 12 ([2]; late intervention, 50 mg/kg IP from Day 10 (Group 4), second column): 2.8 ± 0.49 mm
- Regression rate of preformed vessels in the eye ([2]; rabbit eyes, preliminary work (FIGS. 3, 4)): accelerated the regression rate of preformed vessels
- Average Vessel Lumen Area ([3]; 10 mg/kg): 0.01186 mm^2
- Average Vessel Lumen Area ([3]; 20 mg/kg): 0.01101 mm^2
- Average Vessel Lumen Area ([3]; 100 mg/kg IP): 0.007612 mm^2
- Less vascular lumen area compared to saline ([3]; 100 mg/kg/day IP): approximately 50%
- Number of nuclei penetrating the inner limiting membrane [4]: significantly reduced
- Intratumoral vascularity ([5]; 6 serial biweekly subconjunctival injections, dose levels above 10 mg/ml, 28 days post-treatment): No intratumoral vascularity was present
- Toxicity ([5]; any time point or treatment dose (0.01-100 mg/ml subconjunctival)): no evidence of toxicity was noted
- Intratumoral vascularization ([5]; single 20 ul subconjunctival injection, 100 mg/ml, Days 1, 3 and 7): significant reduction in intratumoral vascularization
